The record followed here is patent publication US7439380B2, “Diarylbutadiene-substituted diorganopolysiloxanes and photoprotective compositions comprised thereof” (L'Oreal, priority 2003, dated 2008).

This data set is described as follows: UV absorption spectrum in ethanol. The class given is physicochemical. Particulars: for UV E1% / UV εmax: at λmax.

The structures appear in SMILES notation.

With `CCOC(=O)/C(=C\C=C(c1ccccc1)c1ccccc1)C(=O)NCCC[Si](C)(O[Si](C)(C)C)O[Si](C)(C)C` [Example 7, ethyl 4,4-diphenyl-1,3-diene-N-[3-[1,3,3,3-tetramethyl-1-[(trimethylsilyl)oxy]disiloxanyl]propyl]-2-(4,4-diphenylprop-2-ethylene)malonamide], the “UV λmax” value came out at 335 nm, the “UV E1%” value is reported as 542 and the “UV εmax” value was 31 650.
Consider `CCOC(=O)/C(=C/C=C(c1ccccc1)c1ccccc1)C(=O)OCC(C)C[Si](C)(O[Si](C)(C)C)O[Si](C)(C)C` (stereo not drawn) [Example 1, monoethyl mono-3-[1,3,3,3-tetramethyl-1-[(trimethylsilyl)oxy]disiloxanyl]-2-methylpropyl 2-(3,3-diphenylprop-2-enylene)malonate], for which the “UV λmax” value is 333 nm, the “UV E1%” value stood at 660 and the “UV εmax” value is on record as 39 530.
Taken in the same sequence, the figures for `C[Si](C)(C)O[Si](C)(CCCNC(=O)/C(C#N)=C/C=C(c1ccccc1)c1ccccc1)O[Si](C)(C)C` [Example 5, N-[3-[1,3,3,3-tetramethyl-1-[(trimethylsilyl)oxy]disiloxanyl]propyl]-2-cyano-5,6-diphenylpenta-2,4-dienamide] were 351 nm, 515 and 27 650.
The like results for `CC(COC(=O)C(=CC=C(c1ccccc1)c1ccccc1)C(=O)OCC(C)C[Si](C)(O[Si](C)(C)C)O[Si](C)(C)C)C[Si](C)(O[Si](C)(C)C)O[Si](C)(C)C` (stereo not drawn) [Example 6] were, in that order, 330 nm, 346 and 28 650.
Taken in the same sequence, the figures for `C[Si](C)(C)O[Si](C)(CCCOC(=O)/C(C#N)=C\C=C(c1ccccc1)c1ccccc1)O[Si](C)(C)C` [Example 3, 3-[1,3,3,3-tetramethyl-1-[(trimethylsilyl)oxy]disiloxanyl]propyl 2-cyano-5,5-diphenylpenta-2,4-dienoate] were 358 nm, 574 and 30 874.
